Laboratory results as given in ChEMBL document CHEMBL1127391, “Generally applicable, convenient solid-phase synthesis and receptor affinities of octreotide analogs” (J Med Chem, 1994).

Biological target: Somatostatin receptor
Test: Dissociation constant binding to somatostatin receptor of At-20 mouse pituitary carcinoma cell membranes
Settings: pituitary gland cell

Kd: 5.57 nM
SMILES: C[C@H](O)[C@H](CO)NC(=O)[C@H](CS)NC(=O)[C@@H](NC(=O)[C@H](CCCCN)NC(=O)[C@@H](Cc1c[nH]c2ccccc12)NC(=O)[C@H](Cc1ccccc1)NC(=O)[C@H](CS)NC(=O)[C@@H](Cc1ccccc1)NC(=O)CN(CCN(CCN(CC(=O)O)CC(=O)O)CC(=O)O)CC(=O)O)[C@@H](C)O
